Results from patent US11260084B2 (priority 2017, dated 2022).

Assays:
[1] = test system: Eimeria acervulina, Eimeria maxima and Eimeria tenella; experiment: Example 8 broiler study under severe coccidiosis challenge conditions; type: in vivo, Ross 708 broiler chicks; conditions: 28-day mortality; compared to the challenged control
Text: EXAMPLE 8 of the present disclosure describes a study to evaluate the efficacy of a combination of xylanase (10 U/g feed), B. licheniformis strain PWD-1 (1×10^5 CFU/g feed), and B. amyloliquefaciens strain Ba-BPD1 (5×10^5 CFU/g feed) referred to as “Xyl+B+Y”, to minimize the severity of gut lesions and improve overall livability of broiler chickens fed standard corn-soy diets and reared under severe coccidiosis challenge conditions. In the study chicks were twice challenged with a live vaccine containing the live oocysts of highly-immunogenic, coccidiostat-sensitive strains of Eimeria acervulina, Eimeria maxima and Eimeria tenella by oral gavage and the Xyl+B+Y combination was compared to salinomycin sodium which is referred to as “Coccidiostat” in FIG. 13. […]
MATERIALS AND METHODS: Four hundred male Ross 708 broiler chicks were randomly assigned to 1 of 4 dietary treatments, with 7 replicate battery cages per treatment (except Treatment 1, the unchallenged positive control, which contained 4 replicate cages), and 16 birds per cage. […] The key parameters evaluated were upper-tract intestinal lesion scores, middle-tract intestinal lesion scores, mortality/livability, and feed conversion ratio (FCR).

[2] = test system: Clostridium perfringens, Eimeria acervulina, and Eimeria maxima, and Eimeria tenella; type: in vivo, Ross 708 broilers; conditions: at 21-days and 42-days of age; versus control

| Compound | reduction of mortality [1] [%] | effect on mortality [2] |
| --- | --- | --- |
| CC[C@@H](C(=O)[C@@H](C)[C@@H](O)[C@H](C)[C@@H]1O[C@@H]([C@@H](CC)C(=O)O)CC[C@@H]1C)[C@H]1O[C@]2(C=C[C@@H](O)[C@]3(CC[C@@](C)([C@H]4CC[C@](O)(CC)[C@H](C)O4)O3)O2)[C@H](C)C[C@@H]1C [Coccidiostat, salinomycin sodium] | 25 |  |
| bacitracin methylene disalicylate [AGP] |  | did not significantly improve |
